Among the data in patent US20260078103A1, “ISOQUINOLONES AS PI3K INHIBITORS” (OnKure, Inc., priority 2022, published 2026) are IC50 and EC50 values, retold here.

For orientation: IC50 means the midpoint of a concentration-inhibition curve. The EC50 is the concentration at which the effect is half-maximal.

Holding throughout (format): cell-based
Assay [1] relates to phosphorylation of AKT (pAKT) in T47D cells expressing mutant PI3Ka (H1047R). The assay can be described thus: In vitro cell pAKT (Ser473) HTRF, T47D cells. The conditions noted are these: cellular pAKT, T47D cells, mutant PI3Ka (H1047R), 6 hours, read-out: Avg T-47D IC50. In short, it runs like this: (§1)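 T47D cells (RPMI, 10% FBS, 0.2 units/mL insulin) or SKBR3 cells (McCoy's 5a, 10% FBS) were seeded onto 10-point compound dilutions and incubated 6 h at 37 °C. After lysis, pAKT was detected overnight by HTRF (Eu cryptate/d2). IC50 was fitted from % inhibition relative to 0.1% DMSO and 10 uM alpelisib controls.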

The subject of assay [2] is T47D cells expressing mutant PI3Ka (H1047R). Nature of the assay: In vitro cell proliferation, T47D cells (CellTiter-Glo). As to conditions: inhibition of proliferation, read-out: Avg T-47D EC50. In a few lines:
(§2)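 T47D (PI3Kα H1047R; RPMI, 10% FBS, insulin 0.2 units/mL) or SKBR3 (WT PI3Kα; McCoys 5a, 10% FBS) cells seeded at 1,500 cells/well on 10-point compound dilutions, grown 72 h at 37 °C. CellTiter-Glo luminescence; inhibition normalised to 0.1% DMSO and 10 uM alpelisib, EC50 from four-parameter fit.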
For orientation: In ATP-based viability assays light output follows the ATP content of the culture.

Assay [3] concerns SKBR3 cells express WT PI3Ka. The assay can be described thus: In vitro cell proliferation, SKBR3 cells (CellTiter-Glo). The conditions noted are these: inhibition of proliferation. In a few lines: as §2
In assay [4] the test system is phosphorylation of AKT (pAKT) in SKBR3 cells express WT PI3Ka. Nature of the assay: In vitro cell pAKT (Ser473) HTRF, SKBR3 cells. As to conditions: cellular pAKT. In a few lines: as §1
For orientation: TR-FRET usually uses a lanthanide donor and a delayed reading to cut background.

Read-outs that look alike come from different tables or passages of the source.

`Cc1cc([C@@H](C)Nc2ccccc2C(=O)O)c2cc(N3CCN(c4cnc(C)s4)CC3)n(C)c(=O)c2c1` [Example 364]: the IC50 in assay [1] (Homo sapiens, T47D, 6 h) is 0.001 to 0.5 µM; in assay [4] (Homo sapiens, SK-BR-3, 6 h), 0.5 to 2 µM. The EC50 in assay [2] (Homo sapiens, T47D, 72 h) was 0.001 to 0.5 µM; in assay [3] (Homo sapiens, SK-BR-3, 72 h), 2 to 15 µM.

Take `Cc1cc([C@@H](C)Nc2ccccc2C(=O)O)c2cc(-c3cc(F)c4nn(C)cc4c3)n(C)c(=O)c2c1` [Example 365]: the IC50 in assay [1] was 0.001 to 0.5 µM; in assay [4] (6 hours), greater than 15 µM. The values for the EC50 in assay [2] (72 hours) and in assay [3] (72 hours) were 0.001 to 0.5 µM and greater than 15 µM, respectively.

Consider `Cc1cc([C@@H](C)Nc2ccccc2C(=O)O)c2cc(-c3cc(F)c4c(cnn4C)c3)n(C)c(=O)c2c1` [Example 366], for which the IC50 was 0.001 to 0.5 µM in assay [1] (Homo sapiens, T47D, 6 h) and 2 to 15 µM in assay [4] (Homo sapiens, SK-BR-3, 6 h). Besides, the EC50 was in the range of 0.001 to 0.5 µM in assay [2] (Homo sapiens, T47D, 72 h) and 2 to 15 µM in assay [3] (Homo sapiens, SK-BR-3, 72 h).

With `Cc1cc([C@@H](C)Nc2ccccc2C(=O)O)c2cc(N3CCN(c4cnc(C)c(F)c4)CC3)n(C)c(=O)c2c1` [Example 367], the IC50 in assay [1] lay in the range of 0.001 to 0.5 µM; in assay [4] (6 hours) it was 2 to 15 µM. The values for the concentration for a half-maximal effect (EC50) in assay [2] (72 hours) and in assay [3] (72 hours) were 0.001 to 0.5 µM and 2 to 15 µM, respectively.

For the molecule `Cc1cc([C@@H](C)Nc2ccccc2C(=O)O)c2cc(-c3cnc(CF)nc3)n(C)c(=O)c2c1` [Example 369], the IC50 in assay [1] (Homo sapiens, T47D, 6 h) was 0.001 to 0.5 µM; in assay [4] (Homo sapiens, SK-BR-3, 6 h), greater than 15 µM. For the same molecule, the EC50 in assay [2] (Homo sapiens, T47D, 72 h) was 0.001 to 0.5 µM; in assay [3] (Homo sapiens, SK-BR-3, 72 h), greater than 15 µM.

For `Cc1cc([C@@H](C)Nc2cccc(F)c2C(=O)O)c2cc(-c3cnc(C(F)(F)F)nc3)n(C)c(=O)c2c1` [Example 371], the figures for the IC50 in assay [1] and in assay [4] (6 hours) were 0.5 to 2 µM and greater than 15 µM, respectively. The EC50 in assay [2] (72 hours) is 0.5 to 2 µM; in assay [3] (72 hours) it was greater than 15 µM.

Take `C[C@@H](Nc1cccc(F)c1C(=O)O)c1cc(F)cc2c(=O)n(C)c(-c3cnc(C(F)(F)F)nc3)cc12` [Example 372]: the IC50 in assay [1] was 2 to 15 µM; in assay [4] (6 hours), greater than 15 µM. In addition, the EC50 was 2 to 15 µM in assay [2] (72 hours) and greater than 15 µM in assay [3] (72 hours).

For `C#Cc1ccc(N[C@H](C)c2cc(C)cc3c(=O)n(C)c(-c4cnc(C(F)(F)F)nc4)cc23)c(C(=O)O)n1` [Example 375], the values for the IC50 in assay [1] and in assay [4] (6 hours) were 0.001 to 0.5 µM and greater than 15 µM, respectively. The EC50 in assay [2] (72 hours) was 0.001 to 0.5 µM; in assay [3] (72 hours), greater than 15 µM.

As for `Cc1cc([C@@H](C)Nc2ccc(Cl)nc2C(=O)O)c2cc(-c3cnc(C(F)(F)F)nc3)n(C)c(=O)c2c1` [Example 376], the IC50 in assay [1] (Homo sapiens, T47D, 6 h) is 0.001 to 0.5 µM; in assay [4] (Homo sapiens, SK-BR-3, 6 h) it was 2 to 15 µM. In addition, the EC50 in assay [2] (Homo sapiens, T47D, 72 h) is 0.001 to 0.5 µM; in assay [3] (Homo sapiens, SK-BR-3, 72 h) it was greater than 15 µM.

In the case of `Cc1cc([C@@H](C)Nc2cnc(Cl)nc2C(=O)O)c2cc(N3CCN(CC(F)(F)F)CC3)n(C)c(=O)c2c1` [Example 377], the IC50 in assay [1] was 2 to 15 µM; in assay [4] (6 hours) it was greater than 15 µM. Further, the half-maximal effective concentration (EC50) in assay [2] (72 hours) is 2 to 15 µM; in assay [3] (72 hours), greater than 15 µM.

Consider `C[C@@H](Nc1ccccc1C(=O)O)c1cc(F)cc2c(=O)n(C)c(-c3cnc(-c4ccc(F)cn4)c(F)c3)cc12` [Example 378], for which the IC50 in assay [1] (Homo sapiens, T47D, 6 h) was 0.001 to 0.5 µM; in assay [4] (Homo sapiens, SK-BR-3, 6 h) it was greater than 15 µM. The half-maximal effective concentration (EC50) in assay [2] (Homo sapiens, T47D, 72 h) was 0.001 to 0.5 µM; in assay [3] (Homo sapiens, SK-BR-3, 72 h) it was greater than 15 µM.

Consider `C[C@@H](Nc1cccc(F)c1C(=O)O)c1cc(F)cc2c(=O)n(C)c(-c3ccc(OC4CC4)nc3)cc12` [Example 379], for which the IC50 in assay [1] (Homo sapiens, T47D, 6 h) is 0.001 to 0.5 µM; in assay [4] (Homo sapiens, SK-BR-3, 6 h) it was greater than 15 µM. The concentration giving a half-maximal response (EC50) is 0.001 to 0.5 µM in assay [2] (Homo sapiens, T47D, 72 h) and greater than 15 µM in assay [3] (Homo sapiens, SK-BR-3, 72 h).

With `Cc1cc([C@@H](C)Nc2ccccc2C(=O)O)c2cc(N3CCN(c4ccc(CF)nc4)CC3)n(C)c(=O)c2c1` [Example 381], the IC50 in assay [1] was 0.001 to 0.5 µM; in assay [4] (6 hours), 2 to 15 µM. The EC50 was 0.001 to 0.5 µM in assay [2] (72 hours) and 2 to 15 µM in assay [3] (72 hours).

On to `Cc1cc([C@@H](C)Nc2ccccc2C(=O)O)c2cc(-c3cnc(C(F)(F)F)cn3)n(C)c(=O)c2c1` [Example 382], for which the IC50 is 0.001 to 0.5 µM in assay [1] (Homo sapiens, T47D, 6 h) and greater than 15 µM in assay [4] (Homo sapiens, SK-BR-3, 6 h). The EC50 in assay [2] (Homo sapiens, T47D, 72 h) is 0.001 to 0.5 µM; in assay [3] (Homo sapiens, SK-BR-3, 72 h), greater than 15 µM.

Consider `Cc1cc([C@@H](C)Nc2ccccc2C(=O)O)c2cc(-c3ncc(C(F)(F)F)cn3)n(C)c(=O)c2c1` [Example 383], for which the IC50 in assay [1] (Homo sapiens, T47D, 6 h) is 0.001 to 0.5 µM; in assay [4] (Homo sapiens, SK-BR-3, 6 h), greater than 15 µM. The 50% effective concentration (EC50) is 0.001 to 0.5 µM in assay [2] (Homo sapiens, T47D, 72 h) and greater than 15 µM in assay [3] (Homo sapiens, SK-BR-3, 72 h).

Consider `Cc1cc([C@@H](C)Nc2ccc(F)nc2C(=O)O)c2cc(-c3cnc(C(F)(F)F)nc3)n(C)c(=O)c2c1` [Example 387], for which the values for the IC50 in assay [1] and in assay [4] (6 hours) were 0.5 to 2 µM and greater than 15 µM, respectively. In addition, the EC50 in assay [2] (72 hours) is 0.001 to 0.5 µM; in assay [3] (72 hours), greater than 15 µM.
